How the values were obtained:
[1] = Cell viability assay (MTT) on normal cell line; assay type: cell-based; conditions: human, MCF-10A mammary epithelial cells, 50 µM of compound;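 note: values are percent cell viability not percent inhibition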
Experimental: To study the effect of 4a-l and 5a-c on normal cell lines, a cell viability assay was done using the MCF-10A (human mammary gland epithelial) cell line ([Abdelbaset et al., 2019]; [Al-Wahaibi et al., 2020]). This study uses a concentration of 50 µM of the investigated compound for 4 days, after which cell viability is evaluated.
To study the effect of 4a-l and 5a-c on normal cell lines, a cell viability assay was done using the MCF-10A (human mammary gland epithelial) cell line ([Abdelbaset et al., 2019]; [Al-Wahaibi et al., 2020]). See Supplementary Appendix S1A.
MTT assay was carried out to study the effect of compounds on mammary epithelial cells (MCF-10A). The medium in which cells were propagated contained Dulbecco's modified Eagle's medium (DMEM)/ Ham's F-12 medium (1:1) supplemented with epidermal growth factor (20 ng/mL), hydrocortisone (500 ng/mL), insulin (10 μg/mL), 2 mM glutamine and 10% fetal calf serum. After every 2-3 days, the cells were passaged using trypsin ethylenediamine tetra acetic acid (EDTA). The cells were seeded at a density of 10^4 cells mL^-1 in flat-bottomed culture plates containing 96 wells each. After 24 h, medium was removed from the plates and the compounds in (in 0.1% DMSO) were added (in 200 μL medium to yield a final concentration of 0.1% v/v) to the wells of plates. A single compound was designated with four wells followed by incubation of plates for 96h at 37°C. After incubation, medium was removed completely from the plates followed by addition of MTT (0.4 mg/mL in medium) to each well and subsequent incubation of plates for 3h. MTT (along with the medium) was removed and DMSO (150μL) was added to each well of the culture plates, followed by vortexing and subsequent measurement of absorbance (at 540 nm) using microplate reader. The data are shown as percentage inhibition of proliferation in comparison with controls containing 0.1% DMSO.

[2] = target: T1, recombinant human DNA topo I (Homo sapiens, UniProt P11387); test: Topo I inhibitory assay (pBR322 relaxation); assay type: biochemical
T1 construct: purchased Topo GEN INC., USA
T1 sequence (P11387 1-765): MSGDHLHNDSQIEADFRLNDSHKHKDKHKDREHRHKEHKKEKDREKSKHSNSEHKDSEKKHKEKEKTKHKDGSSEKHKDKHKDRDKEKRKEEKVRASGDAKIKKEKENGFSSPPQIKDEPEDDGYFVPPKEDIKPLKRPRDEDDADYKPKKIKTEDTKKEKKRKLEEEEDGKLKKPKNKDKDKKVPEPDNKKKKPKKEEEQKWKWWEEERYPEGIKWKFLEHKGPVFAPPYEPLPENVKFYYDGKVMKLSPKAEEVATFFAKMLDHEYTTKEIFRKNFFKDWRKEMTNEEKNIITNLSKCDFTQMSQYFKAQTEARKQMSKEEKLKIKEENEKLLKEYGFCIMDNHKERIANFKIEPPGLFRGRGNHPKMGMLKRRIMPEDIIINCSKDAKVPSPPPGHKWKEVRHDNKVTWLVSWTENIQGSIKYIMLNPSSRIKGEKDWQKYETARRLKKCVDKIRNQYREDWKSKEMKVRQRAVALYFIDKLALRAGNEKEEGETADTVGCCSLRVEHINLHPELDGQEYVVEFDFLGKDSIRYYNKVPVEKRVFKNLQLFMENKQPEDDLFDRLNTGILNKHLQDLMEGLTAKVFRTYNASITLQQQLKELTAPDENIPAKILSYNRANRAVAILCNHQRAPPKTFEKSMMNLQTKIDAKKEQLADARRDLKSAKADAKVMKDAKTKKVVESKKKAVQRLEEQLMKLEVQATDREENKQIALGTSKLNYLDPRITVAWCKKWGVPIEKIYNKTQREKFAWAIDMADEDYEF
Experimental: (§1) All the tested compounds were dissolved in DMSO and the DNA topoisomerase I and II inhibitory activity of each compound was measured as follows according to previously reported methods. Mixture comprising of 100 ng supercoiled pBR322 plasmid DNA (Thermo Scientific, USA) and 0.2 ~ 1 unit of recombinant human DNA topo I (Topo GEN INC., USA) or topo IIα (USB Corp., USA) was incubated with or without the prepared compounds in the assay buffer (For topo I, 10 mM Tris-HCl (pH 7.9), 150 mM NaCl and 0.1% BSA, 0.1 mM spermidine and 5% glycerol; for topo II, 10 mM Tris-HCl (pH 7.9), 50 mM NaCl, 50 mM KCl, 5 mM MgCl2, 1 mM EDTA, 1 mM ATP and […] BSA) for 30 min at 37 ◦C. The reaction with final volume of 10 μL was stopped by adding the topo stop buffer (For topo I, 10% SDS solution containing 0.2% bromophenol blue, 0.2% xylene cyanol and 30% glycerol; for topo II, 7 mM EDTA). The reaction products were electrophoresed on 0.8% agarose gel at 50 V for 1 h with TAE electrophoresis buffer. The gels were stained in an EtBr solution (0.5 mg/mL) and visualized by transillumination with UV light and were quantitated using Alpha Tech ImagerTM (Alpha Innotech Corp., USA).

[3] = target: T2, topo IIα (Homo sapiens, UniProt P11388); test: Topo IIα inhibitory assay (pBR322 relaxation); assay type: biochemical
T2 construct: purchased USB Corp., USA
T2 sequence (P11388 whole entry): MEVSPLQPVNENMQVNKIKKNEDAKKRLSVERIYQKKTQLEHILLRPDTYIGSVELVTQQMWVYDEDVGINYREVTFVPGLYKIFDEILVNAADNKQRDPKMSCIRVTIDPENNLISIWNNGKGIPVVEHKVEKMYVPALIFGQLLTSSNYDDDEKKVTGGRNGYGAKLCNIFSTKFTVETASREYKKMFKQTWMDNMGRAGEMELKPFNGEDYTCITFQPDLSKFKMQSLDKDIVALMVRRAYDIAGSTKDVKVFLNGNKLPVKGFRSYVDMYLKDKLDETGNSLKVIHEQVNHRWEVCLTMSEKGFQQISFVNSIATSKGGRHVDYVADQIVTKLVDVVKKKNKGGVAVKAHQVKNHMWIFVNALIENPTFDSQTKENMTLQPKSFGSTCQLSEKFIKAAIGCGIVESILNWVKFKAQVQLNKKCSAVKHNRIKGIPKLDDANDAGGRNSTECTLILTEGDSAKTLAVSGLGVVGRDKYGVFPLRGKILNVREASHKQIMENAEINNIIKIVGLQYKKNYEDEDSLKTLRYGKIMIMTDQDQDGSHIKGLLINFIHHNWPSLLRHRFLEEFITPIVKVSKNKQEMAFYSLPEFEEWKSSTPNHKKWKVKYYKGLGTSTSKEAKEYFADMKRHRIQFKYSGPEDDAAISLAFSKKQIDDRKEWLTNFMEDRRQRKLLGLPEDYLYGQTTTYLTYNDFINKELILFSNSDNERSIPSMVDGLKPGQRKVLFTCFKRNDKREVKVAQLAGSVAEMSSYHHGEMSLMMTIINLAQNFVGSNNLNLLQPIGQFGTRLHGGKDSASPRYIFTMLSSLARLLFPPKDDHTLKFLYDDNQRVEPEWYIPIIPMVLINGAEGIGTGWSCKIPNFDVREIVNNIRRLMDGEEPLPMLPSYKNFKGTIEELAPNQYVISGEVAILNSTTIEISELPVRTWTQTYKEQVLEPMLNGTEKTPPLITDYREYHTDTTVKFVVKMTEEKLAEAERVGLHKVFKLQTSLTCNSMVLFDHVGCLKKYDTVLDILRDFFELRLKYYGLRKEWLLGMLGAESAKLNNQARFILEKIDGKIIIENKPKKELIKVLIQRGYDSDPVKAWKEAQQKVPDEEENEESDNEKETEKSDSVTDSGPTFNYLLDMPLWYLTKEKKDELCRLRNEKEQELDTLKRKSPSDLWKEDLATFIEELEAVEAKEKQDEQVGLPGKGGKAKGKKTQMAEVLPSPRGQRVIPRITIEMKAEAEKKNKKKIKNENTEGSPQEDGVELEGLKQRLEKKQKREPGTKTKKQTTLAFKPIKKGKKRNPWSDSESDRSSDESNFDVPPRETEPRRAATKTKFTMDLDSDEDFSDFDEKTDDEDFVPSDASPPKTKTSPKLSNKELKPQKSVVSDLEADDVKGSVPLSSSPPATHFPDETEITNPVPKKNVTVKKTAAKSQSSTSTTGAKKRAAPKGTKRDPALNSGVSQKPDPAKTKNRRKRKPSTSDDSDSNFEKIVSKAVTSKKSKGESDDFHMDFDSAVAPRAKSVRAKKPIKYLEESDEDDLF
Experimental: as §1

[4] = tested on: MCF-7 (breast cancer cell line); test: Antiproliferative assay, MCF-7; assay type: cell-based; conditions: Homo sapiens, MCF7; read-out: Antiproliferative activity IC50 ± SEM, MCF-7
Source text: (§2) See Supplementary Appendix S1A.
(§3) DMSO (0.1%) was used as control.

[5] = tested on: Panc-1 (pancreas cancer cell line); test: Antiproliferative assay, Panc-1; assay type: cell-based; conditions: Homo sapiens, read-out: Antiproliferative activity IC50 ± SEM, Panc-1
Source text: as §2, §3

[6] = tested on: A-549 (epithelial cancer cell line); test: Antiproliferative assay, A-549; assay type: cell-based; conditions: Homo sapiens, A549; read-out: Antiproliferative activity IC50 ± SEM, A-549
Source text: as §2, §3

[7] = tested on: HT-29 (colon cancer cell line); test: Antiproliferative assay, HT-29; conditions: Homo sapiens, HT-29, read-out: Antiproliferative activity IC50 ± SEM, HT-29
Experimental: (§4) The IC50 of each compound was calculated using doxorubicin as the reference.
(§5) To explore the antiproliferative potential of compounds MTT assay was performed according to previously reported procedure using different cell lines to explore the antiproliferative potential of compounds propidium iodide fluorescence assay was performed using different cell lines. To calculate the total nuclear DNA, a fluorescent dye (propidium iodide, PI) is used which can attach to the DNA, thus offering a quick and precise technique. PI cannot pass through the cell membrane and its signal intensity can be considered as directly proportional to quantity of cellular DNA. Cells whose cell membranes are damaged or have changed permeability are counted as dead ones. The assay was performed by seeding the cells of different cell lines at a density of 3000-7500 cells/well (in 200µl medium) in culture plates followed by incubation for 24h at 37 °C in humidified 5% CO2/95% air atmospheric conditions. The medium was removed; the compounds were added to the plates at 10 µM concentrations (in 0.1% DMSO) in triplicates, followed by incubation for 48 h. DMSO (0.1%) was used as control. After incubation, medium was removed followed by the addition of PI (25 µl, 50µg/mL in water/medium) to each well of the plates. At -80 °C, the plates were allowed to freeze for 24 h, followed by thawing at 25 °C. A fluorometer (Polar-Star BMG Tech) was used to record the readings at excitation and emission wavelengths of 530 and 620 nm for each well. The percentage cytotoxicity of compounds was calculated using the following formula:

[8] = tested on: four cancer cell lines (A-549, MCF-7, Panc-1, HT-29); test: Antiproliferative assay, average over the four cancer cell lines (GI50); conditions: read-out: Antiproliferative activity IC50, Average (mean GI50)
Experimental: as §4, §5

Row | Compound | viability at 4 days, 50 µM [1] | inhibition at 20 µM [2] | inhibition at 100 µM [2] | melting point | inhibition at 20 µM [3] | inhibition at 100 µM [3] | IC50 [4] | IC50 [5] | IC50 [6] | IC50 [7] | IC50 [8]
1 | COc1ccc2[nH]c(=O)cc(/N=C(\C3CCCC3)N3CCOCC3)c2c1 [Compound 4i, (E) 4-((Cyclopentyl(morpholino)methylene)amino)-6-methoxyquinolin-2(1H)-one] | 89% | 37.2% | 74.9% | 247 °C | 23.1% | 56.7% | 1.4 ± 0.2 µM | 1.6 ± 0.2 µM | 1.1 ± 0.2 µM | 1.2 ± 0.2 µM | 1.3 µM
2 | Cn1c(=O)cc(/N=C(\C2CCCC2)N2CCN(/C(=N/c3cc(=O)n(C)c4ccccc34)C3CCCC3)CC2)c2ccccc21 [Compound 5c, 4,4'-((1E,1′E)-(piperazine-1,4-diylbis(cyclopentylmethanylylidene))bis(azanylylid-ene))bis(1-methylquinolin-2(1H)-one)] | 89% | 46.7% | 84.8% | 342 °C | – | 23.8% | 0.8 ± 0.1 µM | 0.9 ± 0.1 µM | 1.1 ± 0.1 µM | 1.1 ± 0.1 µM | 1 µM
3 | Cc1ccc2[nH]c(=O)cc(/N=C(\C3CCCC3)N3CCCCC3)c2c1 [Compound 4b, (E) 4-((Cyclopentyl(piperidin-1-yl)methylene)amino)-6-methylquinolin-2(1H)-one] | 92% | 29.6% | 65.9% | 222 °C | 22.3% | 57.2% | 1.4 ± 0.1 µM | 1.5 ± 0.1 µM | 1.5 ± 0.1 µM | 1.6 ± 0.1 µM | 1.5 µM
4 | O=c1cc(/N=C(\C2CCCC2)N2CCCCC2)c2cc(Cl)ccc2[nH]1 [Compound 4d, (E) 4-((Cyclopentyl(piperidin-1-yl)methylene)amino)-6-chloroquinolin-2(1H)-one] | 92% | 34.7% | 71.6% | 248 °C | 21.7% | 54.2% | 1.2 ± 0.1 µM | 1.3 ± 0.1 µM | 1.5 ± 0.1 µM | 1.4 ± 0.1 µM | 1.35 µM
